Test results taken from US12559461B2, “Antibiotic adjuvant compounds” (UNIVERSITY OF NOTRE DAME DU LAC, priority 2020, dated 2026).
Where two headings read alike, the source gives them in different places.

Key:
Assay type in all cases: cell-based, Acinetobacter baumannii
[1] = system: A. baumannii isolates (23 strains); test: Clarithromycin potentiation against AB isolates; settings: adjuvant at 7.5 μM
Method: (§1) Broth microdilution method for antibiotic potentiation. Day cultures (6 h) of bacteria in CAMHB were subcultured to 5×10^5 CFU/mL in CAMHB. Aliquots (4 mL) were placed in culture tubes and dosed with compound from 10 mM stock samples to give the desired concentration of the compound to be tested against the particular bacterial strain; this insured non-toxic DMSO concentrations ≤0.3% in each well. 1 mL of the resulting solution was placed in a separate culture and dosed with antibiotic at the highest concentration to be tested. Bacteria treated with antibiotic alone served as the control. Row one of a 96-well plate was filled with 200 μL of the antibiotic/2-AI solution, and rows 2-12 were filled with 100 μL each of the remaining 4 mL of bacterial subculture containing adjuvant at the desired concentration, except for the control lane which contained only bacterial subculture. Row one was then mixed five times, and 100 μL was transferred to row two, which was then mixed five times before being transferred to row three. This process was repeated until all rows had been mixed, except for row twelve which would have only 2-AI to serve as a control to monitor potential toxicity. The 96-well plate was then covered in Glad Press n'Seal and incubated under stationary conditions at 37° C. for 16 h. MIC values were determined as the lowest concentration at which no bacterial growth was observed, and fold reductions were determined by comparison to antibiotic control lane.

[2] = system: A. baumannii isolates (23 strains); test: Minimum inhibitory concentration against AB isolates; settings: Acinetobacter baumannii, compound alone, read-out: Minimum inhibitory concentration of compound
Method: (§2) Broth microdilution method for MIC determination. Day cultures (6 h) of each bacterial strain in cation adjusted Mueller Hinton II broth (CAMHB, Fisher Scientific U.S.) were subcultured to 5×10^5 CFU/mL in CAMHB. Aliquots (1 mL) were placed in culture tubes and compound was added from 10 mM stock samples in DMSO, such that compound concentration equaled highest concentration tested (200 μM). Samples were then aliquoted (200 μL) into the first wells of a 96-well plate, with all remaining wells being filled with 100 μL of initial bacterial subculture. Row one wells were mixed five times, before 100 μL was transferred to row two. Row two was then mixed five times, and 100 μL was transferred to row three. This process was repeated until the final row had been mixed; this served to serially dilute the compound. Plates were then covered with GLAD Press n'Seal and incubated under stationary conditions at 37° C. for 16 h. MIC values were then recorded as the lowest concentration at which no bacterial growth was observed.

AB5075 [3] = test: Broth microdilution MIC of compound alone (standalone toxicity); settings: Acinetobacter baumannii
Method: (§3) Bacterial Strains and Antimicrobial Agents. Acinetobacter baumannii clinical isolate 5075 was obtained from Dr. Colin Manoil at the University of Washington. Colonies were grown on lysogeny broth (LB) agar. Cation-adjusted Mueller-Hinton Broth (CAMHB) (catalog number 212322) were purchased from BD Diagnostics. LB broth was purchased from Fisher Scientific (catalog number BP9722-2). […] Colistin sulfate salt (catalog number C4461) was purchased from Sigma Aldrich. All assays were completed in duplicate and repeated at least two separate times. All compounds were dissolved as their HCl salts in molecular biology grade DMSO as 10 or 100 mM stock solutions and stored at −20° C. Colistin was dissolved in sterile water while clarithromycin was dissolved in molecular biology grade DMSO.
as §2

AB5075 [4] = test: Broth microdilution clarithromycin (CLR) potentiation and dose-response of adjuvant
Method: as §3, §1
Dose-response of Adjuvant Assay. The procedure for ‘broth microdilution method for antibiotic potentiation’ was followed using 4 mL aliquots of adjuvant at various concentrations: 0, 5, 7.5, 10, 15, 20, 25, and 30 μM.

Cl.Nc1nc(-c2ccc(NC(=O)Nc3cc(Br)cc(Br)c3)cc2)c[nH]1 [Compound 20a, 1-(4-(2-amino-1H-imidazol-4-yl)phenyl)-3-(3,5-dibromophenyl)urea hydrochloride]
100 µM: MIC ([2]; A. baumannii strain 3927) | MIC ([2]; A. baumannii strain 4025) | MIC ([2]; A. baumannii strain 4448) | MIC ([2]; A. baumannii strain 4490) | MIC ([2]; A. baumannii strain 8967)
0.25 µg/mL: CLR MIC + adjuvant ([1]; A. baumannii strain 3806) | CLR MIC + adjuvant ([1]; A. baumannii strain 5256) | CLR MIC + adjuvant ([1]; A. baumannii strain 8967) | CLR MIC (AB5075 [4]; compound tested at 7.5 μM)
0.5 µg/mL: CLR MIC + adjuvant ([1]; A. baumannii strain 3927) | CLR MIC + adjuvant ([1]; A. baumannii strain 4052) | CLR MIC + adjuvant ([1]; A. baumannii strain 4448) | CLR MIC + adjuvant ([1]; A. baumannii strain 4795) | CLR MIC + adjuvant ([1]; A. baumannii strain 4857) | CLR MIC + adjuvant ([1]; A. baumannii strain 4878) | CLR MIC + adjuvant ([1]; A. baumannii strain 4957) | CLR MIC + adjuvant ([1]; A. baumannii strain 4991)
128 fold: Fold Reduction of CLR MIC (AB5075 [4]; compound tested at 7.5 μM)
2 µg/mL: CLR MIC + adjuvant ([1]; A. baumannii strain 4269) | CLR MIC + adjuvant ([1]; A. baumannii strain 4498)
1 µg/mL: CLR MIC + adjuvant ([1]; A. baumannii strain 3560) | CLR MIC + adjuvant ([1]; A. baumannii strain 3785) | CLR MIC + adjuvant ([1]; A. baumannii strain 4025) | CLR MIC + adjuvant ([1]; A. baumannii strain 4026) | CLR MIC + adjuvant ([1]; A. baumannii strain 4027) | CLR MIC + adjuvant ([1]; A. baumannii strain 4456) | CLR MIC + adjuvant ([1]; A. baumannii strain 4490) | CLR MIC + adjuvant ([1]; A. baumannii strain 5001) | CLR MIC + adjuvant ([1]; A. baumannii strain 5197) | CLR MIC + adjuvant ([1]; A. baumannii strain 5711)
0.125 µg/mL: CLR MIC (AB5075 [4]; compound tested at 15 μM)
4 µg/mL: CLR MIC (AB5075 [4]; compound tested at 5 μM)
25 µM: MIC ([2]; A. baumannii strain 3560) | MIC ([2]; A. baumannii strain 3806) | MIC ([2]; A. baumannii strain 4456) | MIC ([2]; A. baumannii strain 4795) | MIC ([2]; A. baumannii strain 5197) | MIC ([2]; A. baumannii strain 5256) | MIC ([2]; A. baumannii strain 5711)
256 fold: Fold Reduction of CLR MIC (AB5075 [4]; compound tested at 15 μM)
50 µM: MIC ([2]; A. baumannii strain 3785) | MIC ([2]; A. baumannii strain 4026) | MIC ([2]; A. baumannii strain 4027) | MIC ([2]; A. baumannii strain 4052) | MIC ([2]; A. baumannii strain 4269) | MIC ([2]; A. baumannii strain 4498) | MIC ([2]; A. baumannii strain 4857) | MIC ([2]; A. baumannii strain 4878) | MIC ([2]; A. baumannii strain 4957) | MIC ([2]; A. baumannii strain 4991) | MIC ([2]; A. baumannii strain 5001) | MIC (AB5075 [3])
8 fold: Fold Reduction of CLR MIC (AB5075 [4]; compound tested at 5 μM)
